In ChEMBL document CHEMBL1156023, “Grassystatins A-C from marine cyanobacteria, potent cathepsin E inhibitors that reduce antigen presentation” (J Med Chem, 2009) one finds IC50 data, which are given here for two compounds.

Experiment [1] concerns the target Disintegrin and metalloproteinase domain-containing protein 9 (Homo sapiens, UniProt Q13443). The experiment in a line: Inhibition of ADAM9.
Experiment [2] deals with Disintegrin and metalloproteinase domain-containing protein 10 (Homo sapiens, UniProt O14672). The experiment in a line: Inhibition of ADAM10.
Chain of Disintegrin and metalloproteinase domain-containing protein 10 (O14672 whole entry, the tested form may be a part): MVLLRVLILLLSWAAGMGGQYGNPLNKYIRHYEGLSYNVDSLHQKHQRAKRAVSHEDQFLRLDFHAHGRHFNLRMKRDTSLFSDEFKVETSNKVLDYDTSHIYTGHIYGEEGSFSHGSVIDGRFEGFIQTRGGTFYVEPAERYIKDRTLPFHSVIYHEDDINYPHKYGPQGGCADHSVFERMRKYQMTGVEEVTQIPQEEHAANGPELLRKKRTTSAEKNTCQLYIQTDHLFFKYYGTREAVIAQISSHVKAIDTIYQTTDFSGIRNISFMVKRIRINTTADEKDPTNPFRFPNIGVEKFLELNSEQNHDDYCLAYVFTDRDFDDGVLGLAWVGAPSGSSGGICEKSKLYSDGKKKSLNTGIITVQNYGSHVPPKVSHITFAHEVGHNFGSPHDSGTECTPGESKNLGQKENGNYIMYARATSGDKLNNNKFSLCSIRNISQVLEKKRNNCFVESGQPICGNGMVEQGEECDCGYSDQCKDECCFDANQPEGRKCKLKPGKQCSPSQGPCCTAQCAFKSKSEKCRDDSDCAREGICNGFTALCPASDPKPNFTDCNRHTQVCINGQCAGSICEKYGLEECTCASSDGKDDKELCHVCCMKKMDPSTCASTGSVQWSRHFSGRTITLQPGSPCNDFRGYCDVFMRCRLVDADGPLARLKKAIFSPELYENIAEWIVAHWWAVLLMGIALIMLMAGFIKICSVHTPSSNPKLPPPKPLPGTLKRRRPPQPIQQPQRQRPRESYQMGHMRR
The target of experiment [3] is Disintegrin and metalloproteinase domain-containing protein 17 (Homo sapiens, UniProt P78536).
Chain of Disintegrin and metalloproteinase domain-containing protein 17 (P78536 whole entry, the tested form may be a part): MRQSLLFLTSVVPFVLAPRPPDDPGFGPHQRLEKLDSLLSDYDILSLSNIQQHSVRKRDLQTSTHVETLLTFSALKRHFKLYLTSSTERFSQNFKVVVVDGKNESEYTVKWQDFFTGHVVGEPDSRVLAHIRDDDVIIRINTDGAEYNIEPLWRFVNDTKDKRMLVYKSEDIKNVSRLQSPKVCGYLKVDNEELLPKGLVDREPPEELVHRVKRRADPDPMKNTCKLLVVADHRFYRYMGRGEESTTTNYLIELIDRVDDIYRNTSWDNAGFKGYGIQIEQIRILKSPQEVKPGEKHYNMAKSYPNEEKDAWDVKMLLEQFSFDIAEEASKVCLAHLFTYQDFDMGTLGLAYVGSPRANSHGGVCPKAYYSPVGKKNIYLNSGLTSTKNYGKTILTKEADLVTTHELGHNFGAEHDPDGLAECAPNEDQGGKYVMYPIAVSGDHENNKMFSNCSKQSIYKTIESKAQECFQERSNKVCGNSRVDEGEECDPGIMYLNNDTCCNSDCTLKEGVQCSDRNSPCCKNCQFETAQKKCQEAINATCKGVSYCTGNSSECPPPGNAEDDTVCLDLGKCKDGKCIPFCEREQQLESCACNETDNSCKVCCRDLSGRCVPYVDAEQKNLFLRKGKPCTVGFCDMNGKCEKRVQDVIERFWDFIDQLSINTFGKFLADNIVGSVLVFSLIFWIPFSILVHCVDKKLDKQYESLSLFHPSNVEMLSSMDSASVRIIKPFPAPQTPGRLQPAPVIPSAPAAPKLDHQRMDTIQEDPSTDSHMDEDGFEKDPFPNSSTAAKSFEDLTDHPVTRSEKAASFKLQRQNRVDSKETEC

Square brackets hold non-standard residues; d marks the D form. Peptide text beside a SMILES is read from it. Hmp(2R,3S) = CC[C@H](C)[C@@H](O)C(=O)O; Sta = CC(C)C[C@H](N)[C@@H](O)CC(=O)O; dNMeF = CN[C@H](Cc1ccccc1)C(=O)O; NMeQ = CN[C@@H](CCC(N)=O)C(=O)O Some results are limits rather than exact numbers.

Chain of Disintegrin and metalloproteinase domain-containing protein 9 (Q13443 whole entry, the tested form may be a part): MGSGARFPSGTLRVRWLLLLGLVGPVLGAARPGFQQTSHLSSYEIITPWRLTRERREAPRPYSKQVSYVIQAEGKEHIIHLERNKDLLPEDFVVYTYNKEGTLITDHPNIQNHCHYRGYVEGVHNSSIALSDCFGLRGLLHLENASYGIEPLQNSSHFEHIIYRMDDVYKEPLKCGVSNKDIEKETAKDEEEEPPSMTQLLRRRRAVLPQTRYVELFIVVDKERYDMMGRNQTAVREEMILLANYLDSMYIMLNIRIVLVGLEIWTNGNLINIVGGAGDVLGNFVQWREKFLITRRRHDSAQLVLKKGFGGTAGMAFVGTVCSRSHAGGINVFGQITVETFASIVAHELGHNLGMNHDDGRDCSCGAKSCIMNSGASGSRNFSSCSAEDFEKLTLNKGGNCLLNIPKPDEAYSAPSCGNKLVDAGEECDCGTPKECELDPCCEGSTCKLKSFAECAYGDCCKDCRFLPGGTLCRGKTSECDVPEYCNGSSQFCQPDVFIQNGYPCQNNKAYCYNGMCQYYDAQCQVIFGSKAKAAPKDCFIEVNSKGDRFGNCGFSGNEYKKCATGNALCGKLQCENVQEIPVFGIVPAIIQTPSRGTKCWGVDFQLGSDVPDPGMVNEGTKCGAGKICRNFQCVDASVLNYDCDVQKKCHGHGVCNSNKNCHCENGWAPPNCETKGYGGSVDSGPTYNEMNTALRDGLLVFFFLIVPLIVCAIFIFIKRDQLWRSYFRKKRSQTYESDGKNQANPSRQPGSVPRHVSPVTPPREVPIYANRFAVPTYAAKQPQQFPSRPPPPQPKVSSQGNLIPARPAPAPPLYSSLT

Turning to `CC[C@H](C)[C@H](NC(=O)C[C@H](O)[C@H](CC(C)C)NC(=O)[C@H](CCC(N)=O)N(C)C(=O)[C@H](CC(C)C)NC(=O)[C@H](O)[C@@H](C)CC)C(=O)NCC(=O)N(C)[C@H](Cc1ccccc1)C(=O)N1CCC[C@H]1C(=O)OC` [GRASSYSTATIN C] ({Hmp(2R,3S)}-L[NMeQ][Sta]IG[dNMeF]P-OMe), the IC50 in experiment [1] and in experiment [2] was > 100000 nM each time.

Turning to `CNC(=O)[C@H](Cc1c[nH]c2ccccc12)NC(=O)[C@@H](CC(=O)NO)CC(C)C` [ILOMASTAT], the IC50 in experiment [1] is 56.3 nM; in experiment [2], 263 nM; in experiment [3] it was 13.1 nM.

The IC50 is the concentration that inhibits the measured activity by half.
